Data taken from ChEMBL document CHEMBL1126769, “Synthesis and kappa-opioid antagonist selectivity of a norbinaltorphimine congener. Identification of the address moiety required for kappa-antagonist activity” (J Med Chem, 1993).

Legend:
Mu-type opioid receptor = Mu-type opioid receptor (Cavia porcellus, UniProt P97266); assay: Inhibitory activity against mu-opioid receptor in guinea pig ileum longitudinal muscle using morphine; format: tissue-based
[1] = target: Kappa-type opioid receptor (Cavia porcellus, UniProt P41144); assay: Inhibitory activity against kappa-opioid receptor in guinea pig ileum longitudinal muscle using ethylketazocine; format: tissue-based
Chain of Kappa-type opioid receptor (P41144 whole entry): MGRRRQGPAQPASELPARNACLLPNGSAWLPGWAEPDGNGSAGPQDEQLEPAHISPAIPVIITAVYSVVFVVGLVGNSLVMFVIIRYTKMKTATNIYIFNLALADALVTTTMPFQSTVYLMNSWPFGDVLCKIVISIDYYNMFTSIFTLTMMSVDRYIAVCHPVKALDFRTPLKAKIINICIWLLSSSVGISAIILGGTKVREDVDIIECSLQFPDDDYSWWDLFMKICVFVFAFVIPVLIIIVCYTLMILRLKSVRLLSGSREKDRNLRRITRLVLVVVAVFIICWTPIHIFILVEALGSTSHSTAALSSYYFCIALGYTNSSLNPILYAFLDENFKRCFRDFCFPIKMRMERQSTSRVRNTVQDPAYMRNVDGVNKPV

[2] = target: Opioid receptors; mu & kappa (Homo sapiens) (UniProt P41145+P35372); assay: Selectivity ratio between kappa-opioid receptor to mu-opioid receptor; format: protein assay
Chain of Opioid receptors; mu & kappa (Homo sapiens) (P35372 whole entry, looked up): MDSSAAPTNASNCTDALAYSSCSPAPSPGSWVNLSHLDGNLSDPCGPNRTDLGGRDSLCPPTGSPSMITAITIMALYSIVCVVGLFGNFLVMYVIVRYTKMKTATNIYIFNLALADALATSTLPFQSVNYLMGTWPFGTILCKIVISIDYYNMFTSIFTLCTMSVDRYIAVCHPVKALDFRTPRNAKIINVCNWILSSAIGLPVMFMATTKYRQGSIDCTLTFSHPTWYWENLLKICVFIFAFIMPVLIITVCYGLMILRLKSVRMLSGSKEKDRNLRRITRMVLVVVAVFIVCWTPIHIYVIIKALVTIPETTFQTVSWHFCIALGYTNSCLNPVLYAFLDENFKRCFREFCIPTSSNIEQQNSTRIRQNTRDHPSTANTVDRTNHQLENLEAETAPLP
Chain of Opioid receptors; mu & kappa (Homo sapiens) (P41145 whole entry, looked up): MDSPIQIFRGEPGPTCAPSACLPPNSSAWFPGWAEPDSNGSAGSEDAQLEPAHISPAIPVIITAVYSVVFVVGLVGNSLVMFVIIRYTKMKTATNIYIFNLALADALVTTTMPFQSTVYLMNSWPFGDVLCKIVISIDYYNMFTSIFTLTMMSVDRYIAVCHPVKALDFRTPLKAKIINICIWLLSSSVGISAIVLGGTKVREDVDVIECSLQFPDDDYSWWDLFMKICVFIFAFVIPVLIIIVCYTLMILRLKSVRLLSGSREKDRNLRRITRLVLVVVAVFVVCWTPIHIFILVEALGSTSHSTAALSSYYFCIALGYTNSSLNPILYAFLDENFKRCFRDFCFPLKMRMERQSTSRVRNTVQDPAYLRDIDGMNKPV

[3] = target: Opioid receptors; delta & kappa (Homo sapiens) (UniProt P41145+P41143); assay: Selectivity ratio between kappa-opioid receptor to delta-opioid receptor; format: protein assay
Chain of Opioid receptors; delta & kappa (Homo sapiens) (P41143 whole entry, looked up): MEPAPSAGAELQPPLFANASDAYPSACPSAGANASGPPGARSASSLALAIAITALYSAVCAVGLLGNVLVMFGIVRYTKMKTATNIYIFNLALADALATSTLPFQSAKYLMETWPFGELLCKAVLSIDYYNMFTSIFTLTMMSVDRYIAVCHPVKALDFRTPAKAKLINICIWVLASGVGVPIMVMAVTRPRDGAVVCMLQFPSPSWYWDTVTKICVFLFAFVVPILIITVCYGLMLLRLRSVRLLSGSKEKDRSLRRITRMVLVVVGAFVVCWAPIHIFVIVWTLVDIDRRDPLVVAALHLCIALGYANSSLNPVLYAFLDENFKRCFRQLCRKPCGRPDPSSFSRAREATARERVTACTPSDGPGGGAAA
Chain of Opioid receptors; delta & kappa (Homo sapiens) (P41145 whole entry, looked up): as the sequence (P41145 whole entry, looked up) above

[4] = target: Delta-type opioid receptor (Mus musculus, UniProt P32300); assay: Inhibitory activity against delta-opioid receptor in mouse vas deferens preparation using DADLE
Chain of Delta-type opioid receptor (P32300 whole entry): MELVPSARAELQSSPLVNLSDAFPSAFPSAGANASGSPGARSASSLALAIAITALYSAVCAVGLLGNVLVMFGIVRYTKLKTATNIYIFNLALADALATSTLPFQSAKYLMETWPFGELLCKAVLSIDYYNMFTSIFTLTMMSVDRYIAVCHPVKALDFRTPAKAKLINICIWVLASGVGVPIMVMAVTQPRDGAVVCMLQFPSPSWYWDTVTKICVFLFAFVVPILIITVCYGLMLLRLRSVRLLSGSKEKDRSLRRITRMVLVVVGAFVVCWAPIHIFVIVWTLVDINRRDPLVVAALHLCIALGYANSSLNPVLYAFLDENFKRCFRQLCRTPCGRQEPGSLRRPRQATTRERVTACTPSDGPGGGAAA

Chain of Mu-type opioid receptor (P97266 whole entry): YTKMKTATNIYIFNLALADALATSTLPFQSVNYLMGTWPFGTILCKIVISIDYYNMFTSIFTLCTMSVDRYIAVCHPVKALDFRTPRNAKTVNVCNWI

| SMILES | IC50 (Mu-type opioid receptor) [nM] | IC50 [1] [nM] | Ratio [2] | Ratio [3] | IC50 [4] [nM] |
| --- | --- | --- | --- | --- | --- |
| Cn1c2c(c3c1[C@@H]1Oc4c(O)ccc5c4[C@@]14CCN(CC1CC1)[C@H](C5)[C@]4(O)C3)C[C@H]1CN(C(=O)OCc3ccccc3)CC[C@@H]1C2 | 1.7 | 1.6 | 0.9 | 0.2 | 9.2 |
| Cn1c2c(c3c1[C@@H]1Oc4c(O)ccc5c4[C@@]14CCN(CC1CC1)[C@H](C5)[C@]4(O)C3)C[C@H]1CNCC[C@@H]1C2 | 1 | 40 | 40 | 36 | 1.1 |
| Oc1ccc2c3c1O[C@H]1c4[nH]c5c(c4C[C@@]4(O)[C@@H](C2)N(CC2CC2)CC[C@]314)C[C@@]1(O)[C@H]2Cc3ccc(O)c4c3[C@@]1(CCN2CC1CC1)[C@H]5O4 [NORBINALTORPHIMINE] | 8.3 | 181 | 22 | 17 |  |
